# From ChEMBL document CHEMBL1142732, “In-depth study of tripeptide-based alpha-ketoheterocycles as inhibitors of thrombin. Effective utilization of the S1' subsite and its implications to structure-based drug design” (J Med Chem, 2005)
# pIC50, pKi: −log10 of the molar value.
# Target: T1, Serine protease 1 (Bos taurus, UniProt P00760)
# T1 sequence (P00760 whole entry): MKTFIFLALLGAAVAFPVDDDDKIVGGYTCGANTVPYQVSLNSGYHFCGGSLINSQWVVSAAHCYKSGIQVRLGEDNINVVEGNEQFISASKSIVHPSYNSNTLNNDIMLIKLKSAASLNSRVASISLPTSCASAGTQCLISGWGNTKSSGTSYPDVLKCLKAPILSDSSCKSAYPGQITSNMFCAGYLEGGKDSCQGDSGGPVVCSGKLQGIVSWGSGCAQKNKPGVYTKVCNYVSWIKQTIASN
# Experiment: Binding affinity against bovine trypsin
row,pKi,SMILES
1,6.60,NC(N)=NCCCC(NC(=O)[C@@H]1CCCN1)C(=O)c1nc2ccccc2s1 (stereo partly drawn)
2,5.59,CN[C@H](Cc1ccccc1)C(=O)N1CCC[C@H]1C(=O)N[C@H](Cc1cccc(C(=N)N)c1)C(=O)c1nc2ccccc2s1
3,8.59,CNC1(C(=O)N2CCC[C@H]2C(=O)NC(CCCN=C(N)N)C(=O)c2nc3ccccc3s2)CCCCC1 (stereo partly drawn)
4,8.41,C[C@@](N)(Cc1ccccc1)C(=O)N1CCC[C@H]1C(=O)NC(CCCN=C(N)N)C(=O)c1nc2ccccc2s1 (stereo partly drawn)
5,5.28,CN[C@H](Cc1ccccc1)C(=O)N1CCC[C@H]1C(=O)N(C)[C@@H](CCCN=C(N)N)C(=O)c1nc2ccccc2s1
6,7.89,CN[C@H](Cc1ccccc1)C(=O)N1CCC[C@H]1C(=O)NC(CCCN=C(N)N)C(=O)c1nc2ccccc2o1 (stereo partly drawn)
7,8.74,CNC(C(=O)N1CCC[C@H]1C(=O)NC(CCCN=C(N)N)C(=O)c1nc2ccccc2s1)(c1ccccc1)c1ccccc1 (stereo partly drawn)
8,7.27,CN[C@H](Cc1ccccc1)C(=O)N1CCC[C@H]1C(=O)N[C@H](C(=O)c1nc2ccccc2s1)[C@H]1CC[C@H](CN)CC1
9,8.03,CN[C@H](Cc1c(F)c(F)c(F)c(F)c1F)C(=O)N1CCC[C@H]1C(=O)NC(CCCN=C(N)N)C(=O)c1nc2ccccc2s1 (stereo partly drawn)
10,8.62,CC(=O)N[C@H](Cc1ccccc1)C(=O)N1CCC[C@H]1C(=O)NC(CCCN=C(N)N)C(=O)c1nc2ccccc2s1 (stereo partly drawn)
11,7.24,Cc1cccc(C(C)(C)CN(CC(=O)N[C@@H](CCCN=C(N)N)C(=O)c2nc3ccccc3s2)C(=O)CCc2ccccc2)c1
12,8.82,CN[C@H](Cc1ccccc1)C(=O)N1CCC[C@H]1C(=O)NC(CCCN=C(N)N)C(=O)c1nc2ccc(F)cc2s1 (stereo partly drawn)

row,SMILES,pKi
1,CN[C@H](Cc1ccc(F)cc1)C(=O)N1CCC[C@H]1C(=O)NC(CCCN=C(N)N)C(=O)c1nc2ccccc2s1 (stereo partly drawn),8.52
2,CCCC(CCC)C(=O)N[C@@H](CC(=O)OC)C(=O)N1CCC[C@H]1C(=O)N[C@@H](CCCNC(=N)N)C(=O)c1nc2ccccc2s1,7.80
3,CN[C@H](Cc1ccccc1)C(=O)N1CCC[C@H]1C(=O)N[C@@H](CCCCN)C(=O)c1nc2ccccc2s1,8.37
4,CN[C@H](Cc1ccccc1)C(=O)N1CCC[C@H]1C(=O)NC(CCCN=C(N)N)C(=O)c1nc2ccc(OC)cc2s1 (stereo partly drawn),8.70

# Target: T2, Prothrombin (Homo sapiens, UniProt P00734)
# Experiment: Inhibitory concentration against human alpha thrombin
row,pIC50,SMILES
1,6.03,CN[C@H](Cc1ccccc1)C(=O)N1CCC[C@H]1C(=O)N[C@@H](CCCNC(=N)N)C(=O)c1ccccn1
2,7.10,CN[C@H](Cc1ccccc1)C(=O)N1CCC[C@H]1C(=O)N[C@H](CCCN=C(N)N)C(=O)c1nc2ccccc2s1
3,4.85,CC(=O)N1CCC[C@H]1C(=O)NC(CCCN=C(N)N)C(=O)c1nc2ccccc2s1 (stereo partly drawn)
4,6.43,CN[C@H](Cc1ccccc1)C(=O)N1CCC[C@H]1C(=O)N[C@H](Cc1cccc(C(=N)N)c1)C(=O)c1nc2ccccc2s1
5,6.31,CNC1(C(=O)N2CCC[C@H]2C(=O)NC(CCCN=C(N)N)C(=O)c2nc3ccccc3s2)CCCCC1 (stereo partly drawn)
6,4.68,CN[C@H](Cc1ccccc1)C(=O)N1CCC[C@H]1C(=O)N(C)[C@@H](CCCN=C(N)N)C(=O)c1nc2ccccc2s1
7,6.96,CN[C@H](Cc1ccccc1)C(=O)N1CCC[C@H]1C(=O)NC(CCCN=C(N)N)C(=O)c1nc2ccccc2o1 (stereo partly drawn)
8,7.82,CNC(C(=O)N1CCC[C@H]1C(=O)NC(CCCN=C(N)N)C(=O)c1nc2ccccc2s1)(c1ccccc1)c1ccccc1 (stereo partly drawn)
9,4.77,CN[C@H](Cc1ccccc1)C(=O)N1CCC[C@H]1C(=O)N[C@H](C(=O)c1nc2ccccc2s1)[C@H]1CC[C@H](CN)CC1
10,6.82,CN[C@H](Cc1c(F)c(F)c(F)c(F)c1F)C(=O)N1CCC[C@H]1C(=O)NC(CCCN=C(N)N)C(=O)c1nc2ccccc2s1 (stereo partly drawn)
11,6.37,CC(=O)N[C@H](Cc1ccccc1)C(=O)N1CCC[C@H]1C(=O)NC(CCCN=C(N)N)C(=O)c1nc2ccccc2s1 (stereo partly drawn)
12,5.40,Cc1cccc(C(C)(C)CN(CC(=O)N[C@@H](CCCN=C(N)N)C(=O)c2nc3ccccc3s2)C(=O)CCc2ccccc2)c1

row,SMILES,pIC50
1,CN[C@H](Cc1ccc(F)cc1)C(=O)N1CCC[C@H]1C(=O)NC(CCCN=C(N)N)C(=O)c1nc2ccccc2s1 (stereo partly drawn),7.82
2,CCCC(CCC)C(=O)N[C@@H](CC(=O)OC)C(=O)N1CCC[C@H]1C(=O)N[C@@H](CCCNC(=N)N)C(=O)c1nc2ccccc2s1,7.25
3,CN[C@H](Cc1ccccc1)C(=O)N1CCC[C@H]1C(=O)N[C@@H](CCCCN)C(=O)c1nc2ccccc2s1,6.19

# Organism: Homo sapiens
# Experiment: Inhibitory concentration against gel filtered platelet aggregation induced by alpha thrombin
# Format: functional
row,SMILES,pIC50
1,CCCC(CCC)C(=O)N[C@@H](CC(=O)OC)C(=O)N1CCC[C@H]1C(=O)N[C@@H](CCCNC(=N)N)C(=O)c1nc2ccccc2s1,7.80

# Target: T2, Prothrombin
# Experiment: Binding affinity determined against human alpha thrombin
row,pKi,SMILES
1,7.74,CN[C@H](Cc1ccccc1)C(=O)N1CCC[C@H]1C(=O)N[C@H](C=O)CCCN=C(N)N (stereo in doubt)
2,7.77,CN[C@H](Cc1ccccc1)C(=O)N1CCC[C@H]1C(=O)N[C@H](CCCN=C(N)N)C(=O)c1nc2ccccc2s1
3,7.82,CN[C@H](Cc1ccccc1)C(=O)N1CCC[C@H]1C(=O)N[C@H](Cc1cccc(C(=N)N)c1)C(=O)c1nc2ccccc2s1
4,7.14,CNC1(C(=O)N2CCC[C@H]2C(=O)NC(CCCN=C(N)N)C(=O)c2nc3ccccc3s2)CCCCC1 (stereo partly drawn)
5,5.68,CN[C@H](Cc1ccccc1)C(=O)N1CCC[C@H]1C(=O)N(C)[C@@H](CCCN=C(N)N)C(=O)c1nc2ccccc2s1
6,8.21,CN[C@H](Cc1ccccc1)C(=O)N1CCC[C@H]1C(=O)NC(CCCN=C(N)N)C(=O)c1nc2ccccc2o1 (stereo partly drawn)
7,8.68,CNC(C(=O)N1CCC[C@H]1C(=O)NC(CCCN=C(N)N)C(=O)c1nc2ccccc2s1)(c1ccccc1)c1ccccc1 (stereo partly drawn)
8,6.04,CN[C@H](Cc1ccccc1)C(=O)N1CCC[C@H]1C(=O)N[C@H](C(=O)c1nc2ccccc2s1)[C@H]1CC[C@H](CN)CC1
9,8.42,CN[C@H](Cc1c(F)c(F)c(F)c(F)c1F)C(=O)N1CCC[C@H]1C(=O)NC(CCCN=C(N)N)C(=O)c1nc2ccccc2s1 (stereo partly drawn)
10,6.40,Cc1cccc(C(C)(C)CN(CC(=O)N[C@@H](CCCN=C(N)N)C(=O)c2nc3ccccc3s2)C(=O)CCc2ccccc2)c1

row,SMILES,pKi
1,CN[C@H](Cc1ccc(F)cc1)C(=O)N1CCC[C@H]1C(=O)NC(CCCN=C(N)N)C(=O)c1nc2ccccc2s1 (stereo partly drawn),9.92
2,CCCC(CCC)C(=O)N[C@@H](CC(=O)OC)C(=O)N1CCC[C@H]1C(=O)N[C@@H](CCCNC(=N)N)C(=O)c1nc2ccccc2s1,8.85
3,CN[C@H](Cc1ccccc1)C(=O)N1CCC[C@H]1C(=O)N[C@@H](CCCCN)C(=O)c1nc2ccccc2s1,7.42

# Tested on: Cavia porcellus
# Experiment: Percent change in blood pressure in guinea pig at 3 mg/kg dose
row,SMILES,Delta BP [%]
1,CN[C@H](Cc1ccccc1)C(=O)N1CCC[C@H]1C(=O)NC(CCCN=C(N)N)C(=O)c1nc2ccc(O)cc2s1 (stereo partly drawn),-34
2,CN[C@H](Cc1ccccc1)C(=O)N1CCC[C@H]1C(=O)N[C@@H](CCCCN)C(=O)c1nc2ccccc2s1,-45
3,CN[C@H](Cc1ccccc1)C(=O)N1CCC[C@H]1C(=O)NC(CCCN=C(N)N)C(=O)c1nc2ccc(OC)cc2s1 (stereo partly drawn),-44
